Laboratory results reported in paper PMC9682078, “Structural changes and molecular mechanism study on the inhibitory activity of epigallocatechin against α-glucosidase and α-amylase” (Frontiers in Nutrition, 2022).

Molecular target: T1, α-amylase (Sus scrofa, UniProt P00690)
T1 construct: gene AMY2
T1 sequence (P00690 16-511): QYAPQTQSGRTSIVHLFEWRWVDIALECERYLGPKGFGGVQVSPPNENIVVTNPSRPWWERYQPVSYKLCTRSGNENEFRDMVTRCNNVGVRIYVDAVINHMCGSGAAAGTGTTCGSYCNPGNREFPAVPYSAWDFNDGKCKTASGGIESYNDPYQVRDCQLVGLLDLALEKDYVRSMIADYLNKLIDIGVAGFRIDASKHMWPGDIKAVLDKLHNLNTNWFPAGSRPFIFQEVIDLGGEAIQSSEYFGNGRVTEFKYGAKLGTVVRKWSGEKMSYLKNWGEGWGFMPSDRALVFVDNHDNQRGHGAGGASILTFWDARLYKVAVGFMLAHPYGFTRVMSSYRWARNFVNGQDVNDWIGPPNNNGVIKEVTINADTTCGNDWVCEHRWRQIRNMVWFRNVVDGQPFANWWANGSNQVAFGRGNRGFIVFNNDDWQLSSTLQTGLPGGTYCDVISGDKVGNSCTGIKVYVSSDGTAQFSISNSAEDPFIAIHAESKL
Test: colorimetric DNS starch hydrolysis assay; Lineweaver-Burk kinetics; intrinsic fluorescence quenching
Type: biochemical

IC50: 4.44 mM
SMILES: Oc1cc(O)c2c(c1)O[C@H](c1cc(O)c(O)c(O)c1)[C@H](O)C2 [EGC, epigallocatechin]
